Some results are limits rather than exact numbers.

Usually IC50 stands for the midpoint of a concentration-inhibition curve.

This assay has as its system 7D4 mAb (mouse monoclonal anti-prometryn antibody). The assay is described as follows: ic-ELISA cross-reactivity of the 7D4 mAb with triazines. It counts as binding. Conditions: for IC50: ic-ELISA, analyte 1000-15.625 and 0 ng/mL; for Cross-Reactivity: relative to prometryn = 100%. Here is the method:
The ic-ELISA method was used to screen the best-performing fusion mouse sera. They were used to establish the standard curve of antibodies by detecting the supernatant of positive cells. The buffer required for ic-ELISA was the same as previously reported. The specific steps of the operation are as follows: (1) The coated antigen was added to the microplate by diluting it with the required coating solutions (CBS, pH 9.6, 0.05 mol/L). Each well contained 100 µL, which was incubated at 37 °C for three h before being washed three times with washing buffer (PBST, PBS containing 0.1% Tween-20). (2) With sample dilution buffer (PBSTG, PBST containing 0.1% gelatin), the standard prometryn sample and the antiserum/antibody from mice were diluted to the required concentration. The microplate was incubated for 30 min at 37 °C with 50 µL of diluted antiserum or antibody and standard samples of various concentrations. PBST was used three times to wash the dishes. (3) Then, 100 µL of PBSTG-diluent IgG HRP (labeled goat anti-mouse IgG with HRP) was added to each well. After 30 min at 37 °C, the plate was cleaned three times with PBST. (4) Each well was incubated for 15 min in the dark at 25 °C with 100 µL of TMB color developing solution. To stop the reaction, 50 µL of the hydrochloric acid solution was added to each well. The absorbance at OD450 nm was measured with a TECAN Infinite M200 PRO microplate reader from Männedorf, Switzerland.
The ic-ELISA method was used to determine the ideal antibody and antigen mix. The coating antigen and antibody concentration used in the experiment was 1 mg/mL. The dilution multiples of the coating were 1 × 10^3, 2 × 10^3, 4 × 10^3, and 8 × 10^3. The prometryn standard was 1000 ng/mL. The best concentration combination of antigen and antibody was selected to establish the standard curve of the antibody. Prometryn standards were diluted to 1000, 500, 250, 125, 62.5, 31.25, 15.625, 7.8125, 3.90625, and 0 ng/mL, with PBSTG for subsequent ic-ELISA experiments. The standard curve was determined by ic-ELISA. […] Each measured OD value in the curve is the average of three independent repeats. The 7D4 mAb’s inhibition rate was well linearly correlated with the prometryn concentration. […] The 7D4 mAb type was identified as IgG1 using a mouse antibody isotyping kit from Sigma®, St. Louis, MO, USA.
Eleven triazine herbicides were selected to determine their cross-reactivity with 7D4 mAb. […] The cross-reaction rate with the other seven triazines was less than 1%. The hybridoma cell line 7D4 screened in this study can specifically recognize prometryn. […] The cross-reaction rate may vary depending on the immunoassay format and the competitive hapten preparation used.
A general note: ELISA stands for enzyme-linked immunosorbent assay.

As to `CCNc1nc(NC(C)C)nc(SC)n1` [Ametryn], the IC50 was determined as 11.221 ng/mL and the Cross-Reactivity stood at 34.77%. In addition, the Cross-Reactivity (listed as ametryn) stood at 34.77%.

As to `CCNc1nc(Cl)nc(NC(C)C)n1` [Atrazine], the IC50 is given as above 1000 ng/mL and the Cross-Reactivity was below 0.39%.

For `CNc1nc(NC(C)C)nc(SC)n1` [Desmetryn], the IC50 came out at 21.566 ng/mL and the Cross-Reactivity was 18.09%. Moreover, the Cross-Reactivity (listed as desmetryn) worked out at 18.09%.

In the case of `COc1nc(NC(C)C)nc(NC(C)C)n1` [Prometon], the IC50 is above 1000 ng/mL and the Cross-Reactivity is given as below 0.39%.

On to `CC(C)Nc1nc(Cl)nc(NC(C)C)n1` [Propazine], for which the IC50 is 398.011 ng/mL and the Cross-Reactivity was 0.98%.

Take `CCNc1nc(Cl)nc(NCC)n1` [Simazine]: the IC50 was above 1000 ng/mL and the Cross-Reactivity was below 0.39%.

Take `CCNc1nc(NCC)nc(SC)n1` [Simetryn]: the IC50 was above 1000 ng/mL and the Cross-Reactivity is given as below 0.39%.

As for `CCNc1nc(NC(C)(C)C)nc(OC)n1` [Terbumeton], the IC50 was determined as 51.091 ng/mL and the Cross-Reactivity is given as 7.64%. For the same molecule, for the setting “listed as terbumeton”, the Cross-Reactivity came out at 7.64%.

Consider `CCNc1nc(Cl)nc(NC(C)(C)C)n1` [Terbuthylazine], for which the IC50 is on record as above 1000 ng/mL and the Cross-Reactivity is below 0.39%.

On to `CCNc1nc(NC(C)(C)C)nc(SC)n1` [Terbutryn], for which the IC50 was above 1000 ng/mL and the Cross-Reactivity is recorded as below 0.39%.

The values above are taken from paper PMC9855386, “Obtaining a Monoclonal Antibody against a Novel Prometryn-Like Hapten and Characterization of Its Selectivity for Triazine Herbicides” (Biosensors, 2022).
